Molecules are shown by their SMILES. pIC50: −log10 of the molar value.

The target of one experiment is T1, hAR (human androgen receptor, baculovirus/Sf9 generated extracts) (Homo sapiens, UniProt P10275).
T1 construct: made in house; host or cells: baculovirus/Sf9 insect cells (crude extract)
T1 sequence (P10275 1-920): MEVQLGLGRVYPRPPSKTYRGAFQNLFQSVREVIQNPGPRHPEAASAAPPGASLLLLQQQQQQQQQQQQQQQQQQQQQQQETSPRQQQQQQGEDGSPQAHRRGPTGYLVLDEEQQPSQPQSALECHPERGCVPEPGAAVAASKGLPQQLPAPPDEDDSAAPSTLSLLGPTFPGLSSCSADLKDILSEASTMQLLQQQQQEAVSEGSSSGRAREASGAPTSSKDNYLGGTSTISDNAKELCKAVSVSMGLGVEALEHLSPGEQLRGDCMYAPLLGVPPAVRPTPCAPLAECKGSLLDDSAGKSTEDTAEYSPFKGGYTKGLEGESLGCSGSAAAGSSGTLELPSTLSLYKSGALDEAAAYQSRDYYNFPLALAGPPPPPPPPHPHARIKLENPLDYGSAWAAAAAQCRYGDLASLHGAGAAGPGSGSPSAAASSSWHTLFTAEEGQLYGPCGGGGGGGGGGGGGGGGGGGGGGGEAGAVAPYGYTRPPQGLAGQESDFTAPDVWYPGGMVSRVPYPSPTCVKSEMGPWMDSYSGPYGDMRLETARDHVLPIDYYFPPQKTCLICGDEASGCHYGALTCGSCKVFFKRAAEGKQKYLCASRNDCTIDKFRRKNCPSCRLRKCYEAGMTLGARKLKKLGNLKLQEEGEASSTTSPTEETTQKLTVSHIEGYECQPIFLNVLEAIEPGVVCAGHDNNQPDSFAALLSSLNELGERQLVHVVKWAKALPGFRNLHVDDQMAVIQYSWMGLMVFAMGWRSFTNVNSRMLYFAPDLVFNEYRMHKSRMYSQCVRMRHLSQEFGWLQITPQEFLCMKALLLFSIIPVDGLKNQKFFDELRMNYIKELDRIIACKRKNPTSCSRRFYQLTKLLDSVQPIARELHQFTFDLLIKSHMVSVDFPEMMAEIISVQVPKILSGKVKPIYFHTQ
Description: AR Binding Assay (competitive binding with 3H-DHT tracer). As to conditions: AR Binding IC50, hAR extract, 1 nM 3H-DHT, one hour at 4° C.; mean of multiple tests. Put shortly: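 Compounds at decreasing concentrations were incubated with baculovirus/Sf9 hAR extract, hydroxylapatite and 1 nM ^3H-DHT for one hour at 4° C., then washed three times. The value is the compound concentration inhibiting half of maximum ^3H-DHT binding, reported as the mean of multiple tests.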
The term pIC50 denotes the IC50 on a negative log10 scale, so that one unit is a factor of ten. In the case of `CC(C)CC(Oc1ccc(C#N)c(C(F)(F)F)c1)c1cccc(O)c1` (single isomer, unassigned; (+)) [Example 21, (+)4-[1-(3-Hydroxyphenyl)-3-methylbutoxy]-2-(trifluoromethyl)benzonitrile], the pIC50 was 7.18. Consider `CC(Oc1ccc(C#N)c(C(F)(F)F)c1)c1ccccc1` (racemic) [Example 1, 4-(1-Phenyl-ethoxy)-2-trifluoromethyl-benzonitrile], for which the pIC50 was 8.00. Still for that read-out and setting: as for `CCCC(Oc1ccc(C#N)c(C(F)(F)F)c1)c1cccc(O)c1` (single isomer, unassigned; (+)) [Example 15, (+)4-[1-(3-Hydroxyphenyl)butoxy]-2-(trifluoromethyl)benzonitrile], the figure is 7.70; as for `CCCC(Oc1ccc(C#N)c(C(F)(F)F)c1)c1cccc(O)c1` (racemic) [Example 14, 4-[1-(3-Hydroxyphenyl)butoxy]-2-(trifluoromethyl)benzonitrile], 7.74. Take `Cc1ccc(C(CC(C)C)Oc2ccc(C#N)c(C(F)(F)F)c2)cn1` (stereo not drawn) [Example 89, 4-[3-Methyl-1-(6-methyl-pyridin-3-yl)-butoxy]-2-trifluoromethyl-benzonitrile]: the pIC50 is 6.86. For the compound `CC(C)CC(Oc1ccc(C#N)c(C(F)(F)F)c1)c1cccnc1` (stereo not drawn) [Example 88, 4-(3-Methyl-1-pyridin-3-yl-butoxy)-2-trifluoromethyl-benzonitrile], the negative-log IC50 (pIC50) was 6.66. As for `N#Cc1ccc(OCc2cccc(O)c2)cc1C(F)(F)F` [Example 6, 4-[(3-Hydroxybenzyl)oxy]-2-(trifluoromethyl)benzonitrile], the pIC50 is 7.92.

Regarding `CC(Oc1ccc(C#N)c(C(F)(F)F)c1)c1cccc(O)c1` (single isomer, unassigned; (-)) [Example 9, (−)-4-[1-(3-Hydroxyphenyl)ethoxy]-2-(trifluoromethyl)benzonitrile], the pIC50 is 7.25.

`CCC(Oc1ccc(C#N)c(C(F)(F)F)c1)c1ccccn1` (stereo not drawn) [Example 79, 4-(1-Pyridin^−2-yl-propoxy)-2-trifluoromethyl-benzonitrile]: the pIC50 is 6.83.

With `C=CCC(Oc1ccc(C#N)c(C(F)(F)F)c1)c1cccc(O)c1` (single isomer, unassigned; (-)) [Example 19, (−)4-{[1-(3-Hydroxyphenyl)but-3-enyl]oxy}-2-(trifluoromethyl)benzonitrile], the pIC50 was 6.73.

The same experiment, now with this note: hAR extract, 1 nM 3H-DHT, one hour at 4° C.; mean of multiple tests; read-out: AR Binding IC50.
Consider `CC(Oc1ccc(C#N)c(C(F)(F)F)c1)c1cncc(O)c1` (single isomer, unassigned; (+)) [Example 74, (+)4-[1-(5-Hydroxypyridin-3-yl)ethoxy]-2-(trifluoromethyl)benzonitrile], for which the negative logarithm of the IC50 (pIC50) is 7.46. Regarding `COc1cccc(C(C)Oc2ccc(C#N)c(C(F)(F)F)c2)n1` (stereo not drawn) [Example 80, 4-[1-(6-Methoxy-pyridin-2-yl)-ethoxy]-2-trifluoromethyl-benzonitrile], the negative-log IC50 (pIC50) was 6.92.

The record behind these values is patent US20090170886A1 (Pfizer Inc, priority 2005, published 2009).
